These results are taken from patent publication US20240116985A1, “STAPLED PEPTIDES AND METHODS THEREOF” (priority 2020, published 2024).

The experiment has as its target T1, full-length beta-Catenin (Uniprot ID P35222) (Homo sapiens, UniProt P35222).
T1 construct: 10 nM full-length beta-Catenin (Uniprot ID P35222)
T1 sequence (P35222 1-781): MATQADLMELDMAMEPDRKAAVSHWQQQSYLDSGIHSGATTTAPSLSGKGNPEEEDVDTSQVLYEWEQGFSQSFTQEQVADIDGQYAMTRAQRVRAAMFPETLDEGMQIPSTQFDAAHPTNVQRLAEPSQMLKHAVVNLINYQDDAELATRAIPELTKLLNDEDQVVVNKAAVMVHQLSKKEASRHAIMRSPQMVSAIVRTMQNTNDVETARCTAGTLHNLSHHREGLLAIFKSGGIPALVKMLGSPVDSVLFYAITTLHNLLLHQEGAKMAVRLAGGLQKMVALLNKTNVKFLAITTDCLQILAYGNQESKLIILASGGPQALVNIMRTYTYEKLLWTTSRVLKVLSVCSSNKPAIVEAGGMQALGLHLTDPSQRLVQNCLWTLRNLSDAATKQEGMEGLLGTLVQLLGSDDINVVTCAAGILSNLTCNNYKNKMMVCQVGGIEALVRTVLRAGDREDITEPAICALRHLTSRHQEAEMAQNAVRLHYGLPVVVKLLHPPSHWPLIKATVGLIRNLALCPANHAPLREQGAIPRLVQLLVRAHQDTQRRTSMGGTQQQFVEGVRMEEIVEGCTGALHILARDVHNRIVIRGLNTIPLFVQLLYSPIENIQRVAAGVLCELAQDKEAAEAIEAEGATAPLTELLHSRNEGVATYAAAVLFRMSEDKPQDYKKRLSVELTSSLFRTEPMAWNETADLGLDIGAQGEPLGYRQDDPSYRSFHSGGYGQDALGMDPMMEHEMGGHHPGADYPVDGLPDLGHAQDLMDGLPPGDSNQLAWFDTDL
In words: Fluorescence polarization IC50 (beta-catenin / 5FAM-TCF4 10-53 competition). The experiment is classed as binding. The settings on record: fluorescence polarization; read-out: beta-Catenin FP IC50. A general note: Polarisation of emitted light reports the rotation of a fluorescent probe.

What is called IC50 is the midpoint of a concentration-inhibition curve. For the molecule `CC(=O)N1CCC[C@]12CC=CCCCC1(CCCC=CCCCOC(=O)N3CC[C@@](C(=O)N[C@@H](Cc4ccsc4)C(=O)N[C@@H](Cc4csc5ccccc45)C(=O)N[C@@H](CCC(N)=O)C(N)=O)(C3)NC(=O)[C@H](CC(N)=O)NC(=O)[C@H](Cc3ccc(O)cc3)NC(=O)[C@H](C)NC(=O)[C@H](C)NC(=O)[C@H]([C@@H](C)O)NC(=O)[C@H](CC(N)=O)NC1=O)NC(=O)[C@H](CC(C)(C)C)NC(=O)[C@H](CC(=O)O)NC2=O` (stereo partly drawn) [I-2015, Ac-PL3-Asp-Npg-B5-Asn-Thr-Ala-Ala-Tyr-Asn-PyrS2-3Thi-BztA-Gln-NH2], the IC50 was 522 nM. In the case of `CC(=O)N1CCC[C@]12CC=CCCCC1(CCCC=CCCCOC(=O)N3CC[C@@](C(=O)N[C@@H](Cc4ccsc4)C(=O)N[C@@H](Cc4csc5ccccc45)C(=O)N[C@@H](CCC(N)=O)C(N)=O)(C3)NC(=O)[C@H](CC(N)=O)NC(=O)[C@H](Cc3ccc(O)cc3)NC(=O)[C@H](C)NC(=O)[C@H](C)NC(=O)[C@H]([C@@H](C)O)NC(=O)[C@H](CC(N)=O)NC1=O)NC(=O)[C@H](CC(C)(C)C)NC(=O)[C@H](CC(=O)O)NC2=O` (stereo partly drawn) [I-2016, Ac-PL3-Asp-Npg-B5-Asn-Thr-Ala-Ala-Tyr-Asn-PyrS2-3Thi-BztA-Gln-NH2] it was 703 nM; in that of `CC(=O)N1CCC[C@]12CC=CCCCC1(CCCC=CCCCOC(=O)N3CC[C@](C(=O)N[C@@H](Cc4ccsc4)C(=O)N[C@@H](Cc4csc5ccccc45)C(=O)N[C@@H](CCC(N)=O)C(N)=O)(C3)NC(=O)[C@H](CC(N)=O)NC(=O)[C@H](Cc3ccccc3)NC(=O)[C@H](C)NC(=O)[C@H](C)NC(=O)[C@H](CC(=O)O)NC(=O)[C@H](CC(=O)O)NC1=O)NC(=O)[C@H](CC(C)(C)C)NC(=O)[C@H](CC(=O)O)NC2=O` (stereo partly drawn) [I-2017, Ac-PL3-Asp-Npg-B5-Asp-Asp-Ala-Ala-Phe-Asn-PyrR2-3Thi-BztA-Gln-NH2], 2050 nM; in that of `CC(=O)N1CCC[C@]12CC=CCCCC1(CCCC=CCCCOC(=O)N3CC[C@](C(=O)N[C@@H](Cc4ccsc4)C(=O)N[C@@H](Cc4csc5ccccc45)C(=O)N[C@@H](CCC(N)=O)C(N)=O)(C3)NC(=O)[C@H](CC(N)=O)NC(=O)[C@H](Cc3ccccc3)NC(=O)[C@H](C)NC(=O)[C@H](C)NC(=O)[C@H](CC(=O)O)NC(=O)[C@H](CC(=O)O)NC1=O)NC(=O)[C@H](CC(C)(C)C)NC(=O)[C@H](CC(=O)O)NC2=O` (stereo partly drawn) [I-2018, Ac-PL3-Asp-Npg-B5-Asp-Asp-Ala-Ala-Phe-Asn-PyrR2-3Thi-BztA-Gln-NH2], 1680 nM. In the case of `CC(=O)N1CCC[C@]12CC=CCCCC1(CCCC=CCCCOC(=O)N3CC[C@](C(=O)N[C@@H](Cc4ccsc4)C(=O)N[C@@H](Cc4csc5ccccc45)C(=O)N[C@@H](CCC(N)=O)C(N)=O)(C3)NC(=O)[C@H](CC(C)C)NC(=O)[C@H](Cc3ccccc3)NC(=O)[C@H](C)NC(=O)[C@H](C)NC(=O)[C@H](CC(=O)O)NC(=O)[C@H](CC(=O)O)NC1=O)NC(=O)[C@H](CC(C)(C)C)NC(=O)[C@H](CC(=O)O)NC2=O` (stereo partly drawn) [I-2019, Ac-PL3-Asp-Npg-B5-Asp-Asp-Ala-Ala-Phe-Leu-PyrR2-3Thi-BztA-Gln-NH2] it was 1450 nM; in that of `CC(=O)N1CCC[C@]12CC=CCCCC1(CCCC=CCCCOC(=O)N3CC[C@](C(=O)N[C@@H](Cc4ccsc4)C(=O)N[C@@H](Cc4csc5ccccc45)C(=O)N[C@@H](CCC(N)=O)C(N)=O)(C3)NC(=O)[C@H](CC(C)C)NC(=O)[C@H](Cc3ccccc3)NC(=O)[C@H](C)NC(=O)[C@H](C)NC(=O)[C@H](CC(=O)O)NC(=O)[C@H](CC(=O)O)NC1=O)NC(=O)[C@H](CC(C)(C)C)NC(=O)[C@H](CC(=O)O)NC2=O` (stereo partly drawn) [I-2020, Ac-PL3-Asp-Npg-B5-Asp-Asp-Ala-Ala-Phe-Leu-PyrR2-3Thi-BztA-Gln-NH2], 1200 nM. Consider `CC(=O)N1CCC[C@]12CCCCCCC1(CCCCCCCCOC(=O)N3CC[C@](C(=O)N[C@@H](Cc4ccsc4)C(=O)N[C@@H](Cc4csc5ccccc45)C(=O)N[C@@H](CCC(N)=O)C(N)=O)(C3)NC(=O)[C@H](CC(N)=O)NC(=O)[C@H](Cc3ccccc3)NC(=O)[C@H](C)NC(=O)[C@H](C)NC(=O)[C@H](CC(=O)O)NC(=O)[C@H](CC(=O)O)NC1=O)NC(=O)[C@H](CC(C)(C)C)NC(=O)[C@H](CC(=O)O)NC2=O` (stereo partly drawn) [I-2021, Ac-PL3-Asp-Npg-B5-Asp-Asp-Ala-Ala-Phe-Asn-PyrR2-3Thi-BztA-Gln-NH2], for which the IC50 was 5380 nM.

With `CC(=O)N1CCC[C@]12CCCCCCC1(CCCCCCCCOC(=O)N3CC[C@](C(=O)N[C@@H](Cc4ccsc4)C(=O)N[C@@H](Cc4csc5ccccc45)C(=O)N[C@@H](CCC(N)=O)C(N)=O)(C3)NC(=O)[C@H](CC(C)C)NC(=O)[C@H](Cc3ccccc3)NC(=O)[C@H](C)NC(=O)[C@H](C)NC(=O)[C@H](CC(=O)O)NC(=O)[C@H](CC(=O)O)NC1=O)NC(=O)[C@H](CC(C)(C)C)NC(=O)[C@H](CC(=O)O)NC2=O` (stereo partly drawn) [I-2022, Ac-PL3-Asp-Npg-B5-Asp-Asp-Ala-Ala-Phe-Leu-PyrR2-3Thi-BztA-Gln-NH2], the IC50 came out at 1890 nM.

For the molecule `CC(=O)N1CCC[C@]12CC=CCCCC1(CCCC=CCCCOC(=O)N3CC[C@@](C(=O)N[C@@H](Cc4ccccc4Cl)C(=O)N[C@@H](Cc4csc5ccccc45)C(=O)N[C@@H](Cc4ccccc4)C(N)=O)(C3)NC(=O)[C@H](C)NC(=O)[C@H](Cc3ccccc3)NC(=O)[C@H](C)NC(=O)[C@H](C)NC(=O)[C@H](Cc3cccc(C(=O)O)c3)NC(=O)[C@H](CC(=O)O)NC1=O)NC(=O)[C@H](CC(C)(C)C)NC(=O)[C@H](CC(=O)O)NC2=O` (stereo partly drawn) [I-2025, Ac-PL3-Asp-Npg-B5-Asp-3COOHF-Ala-Ala-Phe-Ala-PyrS2-2C1F-BztA-Phe-NH2], the IC50 amounted to 109 nM.

With `CC(=O)N1CCC[C@]12CC=CCCCC1(CCCC=CCCCOC(=O)N3CC[C@@](C(=O)N[C@@H](Cc4ccccc4Cl)C(=O)N[C@@H](Cc4csc5ccccc45)C(=O)N[C@H](C)C(N)=O)(C3)NC(=O)[C@H](CC(N)=O)NC(=O)[C@H](Cc3ccccc3)NC(=O)[C@H](C)NC(=O)[C@H](C)NC(=O)[C@H](Cc3cccc(C(=O)O)c3)NC(=O)[C@H](CC(=O)O)NC1=O)NC(=O)[C@H](CC(C)(C)C)NC(=O)[C@H](CC(=O)O)NC2=O` (stereo partly drawn) [I-2034, Ac-PL3-Asp-Npg-B5-Asp-3COOHF-Ala-Ala-Phe-Asn-PyrS2-2C1F-BztA-dAla-NH2], the IC50 was determined as 18 nM. `CC(=O)N1CCC[C@]12CC=CCCCC1(CCCC=CCCCOC(=O)N3CC[C@@](C(=O)N[C@@H](Cc4ccsc4)C(=O)N[C@@H](Cc4csc5ccccc45)C(=O)N[C@@H](C)C(N)=O)(C3)NC(=O)[C@H](C(C)C)NC(=O)[C@H](Cc3ccccc3)NC(=O)[C@H](C)NC(=O)[C@H](CCC(N)=O)NC(=O)[C@H](Cc3cccc(C(=O)O)c3)NC(=O)[C@H](CC(=O)O)NC1=O)NC(=O)[C@H](CC(C)(C)C)NC(=O)[C@H](CC(=O)O)NC2=O` (stereo partly drawn) [I-2054, Ac-PL3-Asp-Npg-B5-Asp-3COOHF-Gln-Ala-Phe-Val-PyrS2-3Thi-BztA-Ala-NH2]: the IC50 was found to be 5 nM. In the case of `CC(=O)N1CCC[C@]12CC=CCCCC1(CCCC=CCCCOC(=O)N3CC[C@@](C(=O)N[C@@H](Cc4ccccc4)C(=O)N[C@@H](Cc4csc5ccccc45)C(=O)N[C@@H](CCO)C(N)=O)(C3)NC(=O)[C@H](CC(N)=O)NC(=O)[C@H](Cc3ccccc3)NC(=O)[C@H](C)NC(=O)[C@H](Cc3c[nH]cn3)NC(=O)[C@H](CCC(N)=O)NC(=O)[C@H](CC(=O)O)NC1=O)NC(=O)[C@H](CC1CCCCC1)NC(=O)[C@H](CC(N)=O)NC2=O` (stereo partly drawn) [I-2066, Ac-PL3-Asn-Cha-B5-Asp-Gln-His-Ala-Phe-Asn-PyrS2-Phe-BztA-Hse-NH2] it was 357 nM; in that of `CC(=O)N1CCC[C@]12CC=CCCCC1(CCCC=CCCCOC(=O)N3CC[C@@](C(=O)N[C@@H](Cc4cscn4)C(=O)N[C@@H](Cc4csc5ccccc45)C(=O)N[C@@H](CCO)C(N)=O)(C3)NC(=O)[C@H](CC(N)=O)NC(=O)[C@H](Cc3ccccc3)NC(=O)[C@H](C)NC(=O)[C@H](CCCCNC(C)C)NC(=O)[C@H](CCC(N)=O)NC(=O)[C@H](CC(=O)O)NC1=O)NC(=O)[C@H](CC1CCCCC1)NC(=O)[C@H](CC(N)=O)NC2=O` (stereo partly drawn) [I-2071, Ac-PL3-Asn-Cha-B5-Asp-Gln-iPrLys-Ala-Phe-Asn-PyrS2-4Thz-BztA-Hse-NH2], 592 nM; in that of `CC(=O)N1CCC[C@]12CC=CCCCC1(CCCC=CCCCOC(=O)N3CC[C@@](C(=O)N[C@@H](Cc4ccccc4)C(=O)N[C@@H](Cc4csc5ccccc45)C(=O)N[C@@H](CCO)C(N)=O)(C3)NC(=O)[C@H](CC(N)=O)NC(=O)[C@H](Cc3cscn3)NC(=O)[C@H](C)NC(=O)[C@H](CCCCNC(C)C)NC(=O)[C@H](CCC(N)=O)NC(=O)[C@H](CC(=O)O)NC1=O)NC(=O)[C@H](CC1CCCCC1)NC(=O)[C@H](CC(N)=O)NC2=O` (stereo partly drawn) [I-2072, Ac-PL3-Asn-Cha-B5-Asp-Gln-iPrLys-Ala-4Thz-Asn-PyrS2-Phe-BztA-Hse-NH2], 8260 nM.
